Laboratory results reported in patent US8168801B2, “Imidazolium-type ionic oligomers” (The Royal Institution for the Advancement of …, priority 2007, dated 2012).
Counter-ions that a name gives are not always drawn.

What was measured:
[1] = Thermal stability by thermogravimetric analysis (TGA); format: physicochemical; details: 25° C. to 550° C. at 20° C./min under nitrogen, then air to 700° C., platinum pan
Procedure: The thermal stability of the imidazolium-type ionic oligomers was measured by thermogravimetric analysis (TGA).^42 The onset decomposing temperatures (ODTs) and residue percentages (RPs) are summarized hereinbelow in Table 1.
General: All reagents were commercially obtained from Aldrich Chemical Co. and were used without further purification unless otherwise noted. Solvents were of reagent grade and, if necessary, were dried by standard procedures. ^1H NMR, ^13C NMR and COSY NMR spectra were acquired using Varian Mercury 300 MHz, 400 MHz and Unity 500 MHz spectrometers respectively, equipped with Sun workstations. The proton chemical shifts were reported in parts per million on the δ scale, referenced to the residual proton resonance in CDCl3 (δ 7.24 ppm) or D2O (δ 4.67 ppm). The carbon chemical shifts were reported in parts per million on the δ scale, internally referenced to the solvent resonance in CDCl3 (δ 77.0 ppm). The proton and carbon assignments were made by standard gCOSY experiments. Melting points were taken using a standard melting point apparatus without correcting the thermometer. High resolution mass spectrometric analyses were performed on a VG Micromass ZAB 2F HS (FAB) or a Microm as Quattro II triple quadrupole mass spectrometer (Manchester, UK) equipped with an electrospray ionization source (ESI). Typically only the ion corresponding to the cation (C) component was analyzed. Thermogravimetric analysis (TGA) measurements were performed on a TGA Q500 from TA instruments. The running method used was ramped from 25° C. to 550° C., 20° C./min, under nitrogen, switching to air and then ramped at 20° C./min to 700° C. The type of pan used was platinum. High-pressure liquid chromatography (HPLC) analyses were performed using a reverse phase C18 column (Agilent Zorbax Extend-C18). The elution was performed using a linear gradient from 50% to 100% of B in A over 20 min, followed by a linear gradient elution from 100% to 50% of B in A over 10 min, where A is H2O/0.05% TFA (v/v) and B is CH3CN/0.05% TFA (v/v), at a flow rate of 0.8 mL/min. The eluted compounds were detected by UV absorbance at 210 nm. […]

[2] = Moisture affinity (absorption of moisture from the atmosphere); format: physicochemical

SMILES | melting point [°C] | Onset decomposing temperature (ODT) [1] [°C] | Residue percentage (RP) [1] [%] | Absorption of moisture from the atmosphere [2]
Cc1n(C)cc[n+]1CCCBr (as salt: bromide) [Compound 2] | 96 to 98 |  |  | 
Cc1n(C)cc[n+]1CCCn1cc[n+](CCCBr)c1C (as salt: bromide) [Compound 9] | 201 to 203 |  |  | 
Cc1n(C)cc[n+]1CCCn1cc[n+](CCCBr)c1C (as salt: triflate) [Compound 5] | 76 to 78 |  |  | 
Cc1n(C)cc[n+]1CCCn1cc[n+](CCCBr)c1C (as salt: triflate) [Compound 10] | 84 to 86 |  |  | 
Cc1nccn1C [Compound 1, 1,2-dimethylimidazole, reference compound] |  | 80.6 | 0.18 | 
Cc1n(C)cc[n+]1CCCBr [Compound 2] |  | 215.8 | 0.10 | 
Cc1n(C)cc[n+]1CCCn1cc[n+](CCCBr)c1C [Compound 5] |  | 239.4 | 0.59 | 

Now from value to molecule, other results behind:

melting point [°C] | Onset decomposing temperature (ODT) [1] [°C] | Residue percentage (RP) [1] [%] | SMILES | Absorption of moisture from the atmosphere [2]
159 to 161 |  |  | Cc1nccn1CCC[n+]1ccn(C)c1C (as salt: bromide) [Compound 3] | 
120 to 122 |  |  | Cc1nccn1CCC[n+]1ccn(C)c1C (as salt: triflate) [Compound 4] | 
 | 287.8 | 1.53 | Cc1nccn1CCC[n+]1ccn(C)c1C [Compound 3] | significantly slower rate than compound 2
 | 293.9 | 1.71 | Cc1nccn1CCC[n+]1ccn(C)c1C [Compound 4] | significantly slower rate than compound 2
121 to 123 | 329.6 | 1.38 | Cc1nccn1CCC[n+]1ccn(CCC[n+]2ccn(C)c2C)c1C [Compound 6] | did substantially not absorb moisture
 | 212.2 | 1.89 | Cc1n(C)cc[n+]1CCCn1cc[n+](CCCBr)c1C [Compound 9] | 
 | 277.8 | 0.50 | Cc1n(C)cc[n+]1CCCn1cc[n+](CCCBr)c1C [Compound 10] | 
107 to 109 | 326.2 | 1.76 | Cc1nccn1CCC[n+]1ccn(CCC[n+]2ccn(C)c2C)c1C [Compound 11] | did substantially not absorb moisture
